Active and inactive are the calls of the source.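 Rule for the calls: active = fitted curve reaches -35% activity change at a concentration below twice the top valid dose tested; inactive = the rest, including effects opposite to the expected direction.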
Test: A673 Ewing sarcoma viability loss – cell-based, CellTiter-Glo luminescence, cherry-pick retest, confirmation (AID 720587)
Conditions: A673 Ewing sarcoma viability, CellTiter-Glo ATP luminescence, 72 h; at 23.5 µM (top of the series)

SMILES | activity change, negative = cytotoxicity
COC(=O)C[C@@H]1CC[C@@H]2[C@H](COc3ccc(NC(=O)c4cccc(Cl)c4)cc3C(=O)N2C)O1 | -7.39% (inactive)
N#C[C@H]1N[C@H](CO)[C@H]1c1ccc(C#Cc2ccccc2F)cc1 | 3.42% (inactive)

Same assay, conditions: A673 Ewing sarcoma viability, CellTiter-Glo ATP luminescence, 72 h; at 26 µM (top of the series)

SMILES | activity change, negative = cytotoxicity
COC(=O)c1cccc(NC(=O)NC(=O)c2ccc(Cl)cc2)c1 | -6.08% (inactive)
O=C1CCC2S/C(=C/Nc3ccc(C(F)(F)F)cc3)C(=O)N12 (centres undefined) | -2.74% (inactive)
O=C(CNC(=O)Cc1ccccc1)N=Nc1c(O)n(Cc2ccc3c(c2)OCO3)c2ccccc12 | -1.52% (inactive)
CCc1ccc(/C=C2\SC(=S)N(CCC(=O)Nc3cc(C)on3)C2=O)cc1 | 6.27% (inactive)
Cc1ccc(N=C2NC(=O)/C(=C\c3cccs3)S2)cc1C | 1.74% (inactive)
Cc1ccc(Cc2c(-c3ccco3)nc3c(C)cc(Br)cn23)cc1 | 2.77% (inactive)
CCCN(C)C[C@H]1Oc2ncc(-c3ccccc3)cc2C(=O)N([C@@H](C)CO)C[C@H]1C | -4.17% (inactive)
COc1ccc(Nc2oc(COc3ccccc3OC)nc2C#N)cc1 | 2.48% (inactive)
Cc1c(Cl)cnc(NC(=O)COC(=O)c2ccc3ncsc3c2)c1Cl | 12.1% (inactive)
Nc1ccc2c(c1)OC1(CCCC1)O2 | -14.9% (inactive)
CC(=O)c1ccc(N(C(=O)Cn2nnc3ccccc32)C(C(=O)NCc2ccccc2)c2ccccn2)cc1 (centres undefined) | 3.66% (inactive)
CCOc1ccccc1CNC(=O)c1ccc(Sc2ccc(Cl)cc2)c(NC(C)=O)c1 | -0.342% (inactive)
COc1ccc(C(=O)OCC(=O)Nc2ccc(Cl)c(C(F)(F)F)c2)c(OC)c1OC | 2.74% (inactive)
CCCNC(=O)[C@@H]1[C@@H](CO)[C@@H]2Cn3c(ccc(-c4ccccc4)c3=O)[C@H]1N2C(=O)CC | 14.5% (inactive)
O=C(O)c1cccc(N/N=C/c2cccs2)c1 | -8.12% (inactive)
O=C(Nc1ccc(OC(=O)N2CCCCC2)cc1)N1CCOCC1 | 1.28% (inactive)
COc1ccc(-c2sc3ccccc3c2-c2ccc(OCCN3CCCCC3)cc2)cc1 | -3.21% (inactive)
N#C[C@@H]1[C@H](c2ccc(C#Cc3cccc(F)c3)cc2)[C@@H](CO)N1C(=O)C1CCCC1 | -2.07% (inactive)
Cc1cc(C)cc(OCC(=O)OCC(=O)Nc2cc(S(=O)(=O)N3CCOCC3)ccc2C)c1 | -2.43% (inactive)

SMILES | activity change, negative = cytotoxicity
CC1(CCc2ccccc2)NC(=O)N(CC(=O)N2CC(=O)Nc3ccccc32)C1=O (centres undefined) | 7.32% (inactive)
CC(C)c1ccccc1NC(=O)COC(=O)CCN1C(=O)/C(=C\C=C\c2ccccc2)SC1=S | -0.202% (inactive)
O=C(C[C@@H]1CC[C@@H]2[C@H](COC[C@@H](O)CN2S(=O)(=O)c2ccc(F)cc2)O1)NCc1ccc(Cl)c(Cl)c1 | 8.17% (inactive)
CN(C(=O)COC(=O)c1cc(-c2ccccc2Cl)nc2ccccc12)C1CCS(=O)(=O)C1 (centres undefined) | -1.76% (inactive)
Cc1ccc(-c2ccc3c(c2)O[C@@H](CN(C)C(=O)Nc2ccc(F)cc2)[C@H](C)CN([C@@H](C)CO)S3(=O)=O)cc1 | 0.801% (inactive)
C(=N\Nc1ccc2ccccc2n1)/c1ccc2c(c1)OCO2 | -5.01% (inactive)
Cc1ccsc1/C=N/Nc1cccc(C(=O)O)c1 | -8.75% (inactive)
Cc1c(CC(=O)NCCCC(=O)O)c(=O)oc2cc3c(cc12)CCC(C)(C)O3 | -4.88% (inactive)
CCCn1c(C)cc(C(=O)CN2C(=O)c3ccccc3S2(=O)=O)c1C | 11.3% (inactive)
Cc1cc2sc3ccc(C#CC4(O)CCCCC4)cc3c(=O)c2cc1C | -2.73% (inactive)
C[C@@H]1CN([C@@H](C)CO)S(=O)(=O)c2ccc(C#Cc3ccncc3)cc2O[C@H]1CN(C)C(=O)C1CCOCC1 | -7.5% (inactive)
CCOC(=O)c1c(-c2ccc(C)cc2)csc1NC(=O)CCN1CCOCC1 | 3.44% (inactive)
CN(C)[C@@H]1CCC[C@@H]1OC(=O)C(c1ccccc1)c1ccccc1 | -2.99% (inactive)
COc1ccc(C(=O)Nc2cccc(C(=O)N/N=C/c3ccc(OC)cc3OC)c2)cc1 | -1.59% (inactive)
O=C(Nc1ccc(NC(=O)c2cc3ccccc3o2)cc1)c1ccc2c(c1)OCCO2 | 7.76% (inactive)
C[C@@H]1CN([C@@H](C)CO)C(=O)c2cccc(NC(=O)Nc3ccccc3)c2O[C@@H]1CN(C)Cc1ccc(-c2ccccc2)cc1 | -1.33% (inactive)
CCNC(=O)c1cccc(S(=O)(=O)N2CCCCCC2)c1 | 0.705% (inactive)
CCCCOc1ccc(NC(=O)C(=O)NCCCn2ccnc2)cc1 | -2.77% (inactive)
